Experimental data reported in ChEMBL document CHEMBL5331129, “Discovery of NAFLD-Improving Agents by Promoting the Degradation of Keap1” (J Med Chem, 2023).
Active and inactive are the calls of the source. The rule behind the calls is not given here.

Legend:
Mus musculus [1] = assay: Antioxidant activity against MCD diet-induced oxidative stress in C57Bl/6 mouse model of NAFLD assessed as reduction of hepatic steatosis in liver at ip administrated for 4 weeks by hematoxylin and eosin staining based assay; format: functional, organism-based
[2] = molecular target: T1, Protein cereblon/Kelch-like ECH-associated protein 1 (Mus musculus) (UniProt Q9Z2X8+Q8C7D2); assay: PROTAC activity at CRBN/Keap1 in mouse AML12 cells assessed as degradation of Keap1 protein at 1 uM incubated for 24 hrs by Western blotting analysis; format: cell-based
T1 sequence (Q8C7D2 whole entry, looked up): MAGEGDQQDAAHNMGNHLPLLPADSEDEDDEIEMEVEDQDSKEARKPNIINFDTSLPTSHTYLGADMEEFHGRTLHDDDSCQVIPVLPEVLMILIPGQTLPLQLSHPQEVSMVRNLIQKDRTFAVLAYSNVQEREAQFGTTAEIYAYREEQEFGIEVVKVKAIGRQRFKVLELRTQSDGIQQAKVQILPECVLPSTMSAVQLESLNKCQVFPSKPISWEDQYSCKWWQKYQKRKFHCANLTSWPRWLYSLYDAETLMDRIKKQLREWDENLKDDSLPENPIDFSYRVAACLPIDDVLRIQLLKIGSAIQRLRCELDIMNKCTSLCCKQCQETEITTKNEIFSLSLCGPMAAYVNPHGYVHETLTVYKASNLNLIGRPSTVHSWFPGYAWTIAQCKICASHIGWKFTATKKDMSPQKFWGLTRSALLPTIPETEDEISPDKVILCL
T1 sequence (Q9Z2X8 whole entry, looked up): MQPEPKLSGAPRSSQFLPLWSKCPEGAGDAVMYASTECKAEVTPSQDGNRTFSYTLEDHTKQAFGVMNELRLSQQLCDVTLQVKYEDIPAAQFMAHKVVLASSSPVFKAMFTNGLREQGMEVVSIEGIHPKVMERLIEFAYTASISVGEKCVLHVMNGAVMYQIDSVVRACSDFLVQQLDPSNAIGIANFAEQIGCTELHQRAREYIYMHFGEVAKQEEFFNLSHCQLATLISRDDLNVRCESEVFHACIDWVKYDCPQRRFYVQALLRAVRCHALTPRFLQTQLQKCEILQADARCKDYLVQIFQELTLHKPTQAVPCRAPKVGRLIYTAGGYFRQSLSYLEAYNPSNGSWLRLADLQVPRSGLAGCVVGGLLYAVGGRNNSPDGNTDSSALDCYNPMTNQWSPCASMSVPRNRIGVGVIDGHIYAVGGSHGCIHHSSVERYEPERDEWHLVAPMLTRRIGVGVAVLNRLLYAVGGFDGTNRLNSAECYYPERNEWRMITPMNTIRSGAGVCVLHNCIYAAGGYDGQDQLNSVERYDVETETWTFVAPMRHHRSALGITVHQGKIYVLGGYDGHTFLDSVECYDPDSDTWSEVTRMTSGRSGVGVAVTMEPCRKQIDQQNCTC

[3] = molecular target: T1, Protein cereblon/Kelch-like ECH-associated protein 1 (Mus musculus); assay: PROTAC activity at CRBN/Keap1 in mouse AML12 cells assessed as degradation of Keap1 protein level at 1 uM preincubated with MLN-4924 followed by compound addition and incubated for 24 hrs by Western blotting analysis; format: cell-based
Mus musculus [4] = assay: Antioxidant activity against MCD diet-induced oxidative stress in C57Bl/6 mouse model of NAFLD assessed as increase in CAT level in liver at 0.5 to 2 mg/kg,ip administrated for 4 weeks; format: functional, organism-based; conditions: dose 0.5-2 mg/kg
[5] = Acute toxicity in C57BL/6 mouse assessed as histopathological change in heart at 20 mg/kg,ip qd administrated for 3 consecutive days and measured on day 4 by hematoxylin and eosin staining based assay; format: organism-based; conditions: in vivo
Mus musculus [6] = assay: Antioxidant activity against MCD diet-induced oxidative stress in C57Bl/6 mouse model of NAFLD assessed as downregulation of liver Keap1 protein expression level at 0.5 to 2 mg/kg,ip administrated for 4 weeks by immunofluorescence staining analysis; format: functional, organism-based; conditions: dose 0.5-2 mg/kg
AML12 [7] = assay: Antioxidant activity against free fatty acid induced oxidative stress in mouse AML12 cells assessed as reduction in intracellular lipid accumulation at 0.5 uM incubated for 24 hrs by Oil Red O staining based microscopic analysis; format: functional, cell-based
[8] = molecular target: T1, Protein cereblon/Kelch-like ECH-associated protein 1 (Mus musculus); assay: PROTAC activity at CRBN/Keap1 in mouse AML12 cells assessed as degradation of Keap1 protein incubated for 6 to 48 hrs by Western blotting analysis; format: cell-based; conditions: time 6-48 hrs
Mus musculus [9] = assay: Antioxidant activity against MCD diet-induced oxidative stress in C57Bl/6 mouse model of NAFLD assessed as upregulation of liver HO-1 protein expression level at 0.5 to 2 mg/kg,ip administrated for 4 weeks by immunohistochemical staining assay; format: functional, organism-based; conditions: dose 0.5-2 mg/kg
[10] = molecular target: Kelch-like ECH-associated protein 1 (Homo sapiens, UniProt Q14145); assay: Binding affinity to Keap1 (unknown origin) assessed as dissociation constant incubated for 200 sec by sensor chip immobilization based surface plasmon resonance analysis
Chain of Kelch-like ECH-associated protein 1 (Q14145 whole entry): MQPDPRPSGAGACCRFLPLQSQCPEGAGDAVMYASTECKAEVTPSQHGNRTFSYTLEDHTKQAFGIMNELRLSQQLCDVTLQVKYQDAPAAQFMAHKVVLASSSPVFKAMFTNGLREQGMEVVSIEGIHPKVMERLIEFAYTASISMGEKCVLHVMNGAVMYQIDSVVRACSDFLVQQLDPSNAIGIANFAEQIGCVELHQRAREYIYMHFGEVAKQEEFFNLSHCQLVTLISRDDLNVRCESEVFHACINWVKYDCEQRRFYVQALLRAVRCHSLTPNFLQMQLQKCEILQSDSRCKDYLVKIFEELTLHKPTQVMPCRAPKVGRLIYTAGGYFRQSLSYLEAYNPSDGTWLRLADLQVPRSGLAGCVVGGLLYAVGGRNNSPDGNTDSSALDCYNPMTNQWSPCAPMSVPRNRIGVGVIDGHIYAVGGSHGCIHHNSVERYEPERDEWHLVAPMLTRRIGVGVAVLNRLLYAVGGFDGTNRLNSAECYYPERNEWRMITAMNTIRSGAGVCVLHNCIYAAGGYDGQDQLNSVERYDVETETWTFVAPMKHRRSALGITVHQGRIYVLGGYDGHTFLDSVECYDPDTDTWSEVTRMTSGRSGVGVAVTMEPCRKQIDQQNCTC

[11] = Toxicity in C57BL/6 mouse assessed as histopathological change in kidney at 2 mg/kg,ip qd administrated for 4 weeks by hematoxylin and eosin staining based assay; format: organism-based; conditions: in vivo, 672 h
AML12 [12] = assay: Antioxidant activity against free fatty acid induced oxidative stress in mouse AML12 cells assessed as upregulation of Nrf2 protein expression level at 0.125 to 0.5 uM incubated for 24 hrs by immunofluorescence staining analysis; format: functional, cell-based; conditions: dose 0.125-0.5 µM
[13] = molecular target: Protein cereblon/Kelch-like ECH-associated protein 1 (Mus musculus, UniProt Q9Z2X8+Q8C7D2); assay: PROTAC activity at CRBN/Keap1 in mouse AML12 cells assessed as degradation of Keap1 protein at 0.5 to 2 uM incubated for 48 hrs by Western blotting analysis; format: cell-based
Chain of Protein cereblon/Kelch-like ECH-associated protein 1 (Mus musculus, UniProt Q9Z2X8+Q8C7D2) (Q9Z2X8 whole entry): as the sequence (Q9Z2X8 whole entry, looked up) above
Chain of Protein cereblon/Kelch-like ECH-associated protein 1 (Mus musculus, UniProt Q9Z2X8+Q8C7D2) (Q8C7D2 whole entry): as the sequence (Q8C7D2 whole entry, looked up) above

[14] = molecular target: T1, Protein cereblon/Kelch-like ECH-associated protein 1 (Mus musculus); assay: PROTAC activity at CRBN/Keap1 in mouse AML12 cells assessed as degradation of Keap1 protein at 0.5 to 2 uM incubated for 6 to 48 hrs by Western blotting analysis; format: cell-based; conditions: dose 0.5-2 µM, time 6-48 hrs, TDE = time-dependent effect
[15] = Toxicity in C57BL/6 mouse assessed as histopathological change in lung at 2 mg/kg,ip qd administrated for 4 weeks by hematoxylin and eosin staining based assay; format: organism-based; conditions: in vivo, 672 h
Mus musculus [16] = assay: Antioxidant activity against MCD diet-induced oxidative stress in C57Bl/6 mouse model of NAFLD assessed as reduction of serum ALT level at 0.5 to 2 mg/kg,ip administrated for 4 weeks; format: functional, organism-based; conditions: dose 0.5-2 mg/kg
[17] = Cardiotoxicity in zebrafish at 10 uM observed at 72 hrs post fertilization; format: toxicity, Danio rerio
Mus musculus [18] = assay: Antioxidant activity against MCD diet-induced oxidative stress in C57Bl/6 mouse model of NAFLD assessed as upregulation of liver NQO1 protein expression level at 0.5 to 2 mg/kg,ip administrated for 4 weeks by immunohistochemical staining assay; format: functional, organism-based; conditions: dose 0.5-2 mg/kg
Mus musculus [19] = assay: Antioxidant activity against MCD diet-induced oxidative stress in C57Bl/6 mouse model of NAFLD assessed as upregulation of liver Nrf2 protein expression level at 0.5 to 2 mg/kg,ip administrated for 4 weeks by immunoblot analysis; format: functional, organism-based; conditions: dose 0.5-2 mg/kg
[20] = molecular target: T1, Protein cereblon/Kelch-like ECH-associated protein 1 (Mus musculus); assay: PROTAC activity at CRBN/Keap1 in mouse AML12 cells assessed as degradation of Keap1 protein level at 1 uM preincubated with proteasome inhibitor, MG-132 followed by compound addition and incubated for 24 hrs by Western blotting analysis; format: cell-based
[21] = molecular target: Protein cereblon/Kelch-like ECH-associated protein 1 (Mus musculus, UniProt Q8C7D2+Q9Z2X8); assay: PROTAC activity at CRBN/Keap1 in mouse AML12 cells assessed as reduction of Keap1 protein incubated for 24 hrs by Western blotting analysis; format: cell-based
Chain of Protein cereblon/Kelch-like ECH-associated protein 1 (Mus musculus, UniProt Q8C7D2+Q9Z2X8) (Q9Z2X8 whole entry): as the sequence (Q9Z2X8 whole entry, looked up) above
Chain of Protein cereblon/Kelch-like ECH-associated protein 1 (Mus musculus, UniProt Q8C7D2+Q9Z2X8) (Q8C7D2 whole entry): as the sequence (Q8C7D2 whole entry, looked up) above

[22] = Toxicity in C57BL/6 mouse assessed as change in body weight at 2 mg/kg,ip qd administrated for 4 weeks; format: organism-based; conditions: in vivo, 672 h
Mus musculus [23] = assay: Antioxidant activity against MCD diet-induced oxidative stress in C57Bl/6 mouse model of NAFLD assessed as downregulation of liver Keap1 protein expression level at 0.5 to 2 mg/kg,ip administrated for 4 weeks by immunoblot analysis; format: functional, organism-based; conditions: dose 0.5-2 mg/kg
Mus musculus [24] = assay: Antioxidant activity against MCD diet-induced oxidative stress in C57Bl/6 mouse model of NAFLD assessed as reduction of serum TG level at 0.5 to 2 mg/kg,ip administrated for 4 weeks; format: functional, organism-based; conditions: dose 0.5-2 mg/kg
AML12 [25] = assay: Cytotoxicity against mouse AML12 cells at 0.5 uM incubated for 24 hrs by MTT assay; format: toxicity, cell-based; conditions: aml12, 24 h
AML12 [26] = assay: Antioxidant activity against free fatty acid induced oxidative stress in mouse AML12 cells assessed as increase in GSH level at 0.125 to 0.5 uM; format: functional, cell-based; conditions: dose 0.125-0.5 µM
Mus musculus [27] = assay: Antioxidant activity against MCD diet-induced oxidative stress in C57Bl/6 mouse model of NAFLD assessed as reduction of serum aminotransferase level at 0.5 to 2 mg/kg,ip administrated for 4 weeks; format: functional, organism-based; conditions: dose 0.5-2 mg/kg
Mus musculus [28] = assay: Antioxidant activity against MCD diet-induced oxidative stress in C57Bl/6 mouse model of NAFLD assessed as reduction of liver macrophage infiltration at 0.5 to 2 mg/kg,ip administrated for 4 weeks by immunostaining assay; format: functional, organism-based; conditions: dose 0.5-2 mg/kg
Mus musculus [29] = assay: Antioxidant activity against MCD diet-induced oxidative stress in C57Bl/6 mouse model of NAFLD assessed as increase in GSH level in liver at 0.5 to 2 mg/kg,ip administrated for 4 weeks; format: functional, organism-based; conditions: dose 0.5-2 mg/kg
Mus musculus [30] = assay: Antioxidant activity against MCD diet-induced oxidative stress in C57Bl/6 mouse model of NAFLD assessed as reduction of serum TC level at 0.5 to 2 mg/kg,ip administrated for 4 weeks; format: functional, organism-based; conditions: dose 0.5-2 mg/kg
Mus musculus [31] = assay: Antioxidant activity against MCD diet-induced oxidative stress in C57Bl/6 mouse model of NAFLD assessed as increase in serum HDL-C level at ip administrated for 4 weeks; format: functional, organism-based

CC1(C)CC[C@]2(C(=O)NCCCCCNc3cccc4c3C(=O)N(C3CCC(=O)NC3=O)C4=O)CC[C@]3(C)[C@H](C(=O)C=C4C5(C)C=C(C#N)C(=O)C(C)(C)[C@@H]5CC[C@]43C)[C@@H]2C1 (single isomer, unassigned)
Activity (Mus musculus [1]): Dose-Dependent Effect | Activity [2]: Active | Activity [3]: inactive | Activity (Mus musculus [4]): Active | Activity [5]: Toxic | Activity (Mus musculus [6]): Dose-Dependent Effect | Activity (AML12 [7]): Active | Activity [8]: Dose-Dependent Effect | Activity (Mus musculus [9]): Dose-Dependent Effect | Kd [10]: 11.9 µM | Activity [11]: Non-Toxic | Activity (AML12 [12]): Active | DC50 [13]: 0.21 µM | Activity [14]: Tde | Activity [15]: Non-Toxic | Activity (Mus musculus [16]): Active | Activity [17]: Non-Toxic | Activity (Mus musculus [18]): Dose-Dependent Effect | Activity (Mus musculus [19]): Dose-Dependent Effect | Activity [20]: inactive | IC50 [21]: 18.2 µM | Activity [22]: Toxic | Activity (Mus musculus [23]): Dose-Dependent Effect | Activity (Mus musculus [24]): Active | Activity (AML12 [25]): Non-Toxic | Activity (AML12 [26]): Active | Activity (Mus musculus [27]): Active | Activity (Mus musculus [28]): Active | Activity (Mus musculus [29]): Active | Activity (Mus musculus [30]): Active | Activity (Mus musculus [31]): Dose-Dependent Effect
